Experimental data: patent US11254640B2, “N-substituted indoles and other heterocycles for treating brain disorders” (The Regents of the University of California, priority 2019, dated 2022)

Test system: 5HT2A sensor
Test: 5HT2A sensor assay, agonist mode (sLight1.3s HEK293T stable line)
Type: cell-based
Conditions: 100 nM compound; percent relative to 5-HT at 100 uM
Procedure: In some embodiments, hallucinogenic potential of a compound of the present invention is determined in vitro. In some embodiments, hallucinogenic potential of a compound of the present invention is determined using a 5HT2A sensor assay. In some embodiments, the 5HT2A sensor assay is in an agonist mode or an antagonist mode. In some embodiments, the 5HT2A sensor assay is in an agonist mode.
(§1) 5HT2A Sensor Assays. HEK293T (ATCC) 5HT2A sensor stable line (sLight1.3s) was generated via lentiviral transduction of HIV-EF1α-sLight1.3 and propagated from a single colony. Lentivirus was produced using 2nd generation lentiviral plasmids pHIV-EF1α-sLight1.3, pHCMV-G, and pCMV-deltaR8.2.
(§2) For the screening of the 41 compounds, sLight1.3s cells were plated in 96-well plates at a density of 40000 24-hours prior to imaging. On the day of imaging, compounds solubilized in DMSO were diluted from the 100 mM stock solution to working concentrations of 1 mM, 100 μM and 1 μM with a DMSO concentration of 1%. Immediately prior to imaging, cells growing in DMEM (Gibco) were washed 2× with HBSS (Gibco) and in agonist mode 180 μL of HBSS or in antagonist mode 160 μL of HBSS was added to each well after the final wash. For agonist mode, images were taken before and after the addition of the 20 μL compound working solution into the wells containing 180 μL HBSS. This produced final compound concentrations of 100 μM, 10 μM and 100 nM with a DMSO concentration of 0.1%. For antagonist mode, images were taken before and after addition of 20 μL of 900 nM 5-HT and again after 20 μL of the compound working solutions to produce final concentrations of 100 nM for 5HT and 100 μM, 10 μM and 100 nM for the compounds with a DMSO concentration of 0.1%. Each compound was tested in triplicates (3 wells) for each concentration (100 μM, 10 μM and 100 nM). Additionally, within each plate, 100 nM 5HT and 0.1% DMSO controls were also imaged.
(§3) Imaging was performed using the Leica DMi8 inverted microscope with a 40× objective using the FITC preset with an excitation of 460 nm and emission of 512-542 nm. For each well, the cellular membrane where the 5HT2A sensor is targeted was autofocused using the adaptive focus controls and 5 images from different regions within the well were taken with each image processed from a 2×2 binning.
(§4) For data processing, the membranes from each image was segmented and analyzed using a custom algorithm written in MATLAB producing a single raw fluorescence intensity value. For each well the 5 raw fluorescence intensity values generated from the 5 images were averaged and the change in fluorescence intensity (dFF) was calculated as: dFF=(Fsat−Fapo)/Fapo
(§5) For both agonist and antagonist modes, the fluorescence intensity values before compound addition in HBSS only were used as the Fapo values while the fluorescence intensity values after compound addition were used as the Fsat values.
(§6) For agonist mode, data are as percent activation relative to 5HT, where 0 is the average of the DMSO wells and 100 is the average of the 100 uM 5HT wells. For antagonist mode, the inactivation score was calculated as: Inactivation score=(dFFF(Compound+5HT)−dFF(5HT))/dFF(5HT)

Row | SMILES | 5HT2A Agonist mean @ 100 nM (%)
1 | Clc1ccc2c(ccn2CCN2CCCC2)c1 [Example 47, 5-chloro-1-(2-(pyrrolidin-1-yl)ethyl)-1H-indole] | B (does not activate 5HT2A sensor assay in agonist mode)
2 | Clc1ccc2c(ccn2CCN2CCCCC2)c1 [Example 48, 5-chloro-1-(2-(piperidin-1-yl)ethyl)-1H-indole] | B (does not activate 5HT2A sensor assay in agonist mode)
3 | Clc1ccc2c(ccn2CCN2CCOCC2)c1 [Example 49, 4-(2-(5-chloro-1H-indol-1-yl)ethyl)morpholine] | B (does not activate 5HT2A sensor assay in agonist mode)
4 | FC(F)(F)Oc1ccc2c(ccn2CCN2CCCC2)c1 [Example 50, 1-(2-(pyrrolidin-1-yl)ethyl)-5-(trifluoromethoxy)-1H-indole] | B (does not activate 5HT2A sensor assay in agonist mode)

Same assay, conditions: 10 μM compound; percent relative to 5-HT at 100 uM

Row | SMILES | 5HT2A Agonist mean @ 10 μM (%)
5 | Clc1ccc2c(ccn2CCN2CCCC2)c1 [Example 47, 5-chloro-1-(2-(pyrrolidin-1-yl)ethyl)-1H-indole] | B (does not activate 5HT2A sensor assay in agonist mode)
6 | Clc1ccc2c(ccn2CCN2CCCCC2)c1 [Example 48, 5-chloro-1-(2-(piperidin-1-yl)ethyl)-1H-indole] | B (does not activate 5HT2A sensor assay in agonist mode)
7 | Clc1ccc2c(ccn2CCN2CCOCC2)c1 [Example 49, 4-(2-(5-chloro-1H-indol-1-yl)ethyl)morpholine] | B (does not activate 5HT2A sensor assay in agonist mode)
8 | FC(F)(F)Oc1ccc2c(ccn2CCN2CCCC2)c1 [Example 50, 1-(2-(pyrrolidin-1-yl)ethyl)-5-(trifluoromethoxy)-1H-indole] | B (does not activate 5HT2A sensor assay in agonist mode)

Same assay, conditions: 100 μM compound; percent relative to 5-HT at 100 uM

Row | SMILES | 5HT2A Agonist mean @ 100 μM (%)
9 | Clc1ccc2c(ccn2CCN2CCCC2)c1 [Example 47, 5-chloro-1-(2-(pyrrolidin-1-yl)ethyl)-1H-indole] | B (does not activate 5HT2A sensor assay in agonist mode)
10 | Clc1ccc2c(ccn2CCN2CCCCC2)c1 [Example 48, 5-chloro-1-(2-(piperidin-1-yl)ethyl)-1H-indole] | B (does not activate 5HT2A sensor assay in agonist mode)
11 | Clc1ccc2c(ccn2CCN2CCOCC2)c1 [Example 49, 4-(2-(5-chloro-1H-indol-1-yl)ethyl)morpholine] | A (activates 5HT2A sensor assay in agonist mode)
12 | FC(F)(F)Oc1ccc2c(ccn2CCN2CCCC2)c1 [Example 50, 1-(2-(pyrrolidin-1-yl)ethyl)-5-(trifluoromethoxy)-1H-indole] | A (activates 5HT2A sensor assay in agonist mode)

Test system: rat cortical neurons
Test: Neurite outgrowth assay
Type: cell-based
Conditions: Cortical neurone, 1 hour treatment at DIV 4, analysed DIV 7, fold vs DMSO control, read-out: Neurite Average Length @ 10 μM
From the text: Neurite outgrowth assay. Changes in the pattern of neurite outgrowth have been implicated in neurodegenerative disorders as well as traumatic injuries. The discovery of new compounds that can positively affect neuritogenesis are important for developing new therapeutics for neurological diseases. Measurement of neurite outgrowth of rat cortical neurons using an automated image-based assay was used to determine the neuroplastic effects of the compounds of the present invention. In some embodiments, a compound of the present invention increases the pattern of neurite outgrowth. In some embodiments, a compound of the present invention increases neurite average length compared to a control. In some embodiments, a compound of the present invention increases neurite branch points compared to a control. In some embodiments, a compound of the present invention increases neurite average length and neurite branch points compared to a control.
Neurite Outgrowth Assay. Rat cortical neurons (20,000 cells/well) were freshly isolated from embryonic day 18 rats and cultured in Neurobasal Medium (+B27). The cultured cells were plated in 96 well-plates (avoiding external wells). At DIV 4, the neurons were treated with compound or control (10 μM) for 1 hour followed by complete washout of the compound. At DIV 7, the neurons were analyzed. The experiments were performed in triplicate. Neurite outgrowth was measured analyzing the following parameters: Number of Cell Bodies, total neurite length (pixels), Root Count, Segments, Extremities Count and node points. Changes in the pattern of neurite outgrowth of the neurons were analyzed by immunocytochemistry against β-III-tubulin. Pictures were acquired by the CellInsight CX7 from Thermo Fisher and analyzed using its software. Results generated in the equipment were maximum neurite length, extremity count, root count, dendrite branch points, and total neurite length. The results were compared to DMSO control, representing the fold-change in neuronal outgrowth.

Row | SMILES | fold induction at 10 µM
13 | Clc1ccc2c(ccn2CCN2CCCC2)c1 [Example 47, 5-chloro-1-(2-(pyrrolidin-1-yl)ethyl)-1H-indole] | 1.5 to 3
14 | Clc1ccc2c(ccn2CCN2CCCCC2)c1 [Example 48, 5-chloro-1-(2-(piperidin-1-yl)ethyl)-1H-indole] | 1.5 to 3
15 | Clc1ccc2c(ccn2CCN2CCOCC2)c1 [Example 49, 4-(2-(5-chloro-1H-indol-1-yl)ethyl)morpholine] | 1.5 to 3
16 | FC(F)(F)Oc1ccc2c(ccn2CCN2CCCC2)c1 [Example 50, 1-(2-(pyrrolidin-1-yl)ethyl)-5-(trifluoromethoxy)-1H-indole] | 1.5 to 3

Same assay, conditions: Cortical neurone, 1 hour treatment at DIV 4, analysed DIV 7, fold vs DMSO control, read-out: Neurite Branch Points: @ 10 μM

Row | SMILES | fold induction at 10 µM
17 | Clc1ccc2c(ccn2CCN2CCCC2)c1 [Example 47, 5-chloro-1-(2-(pyrrolidin-1-yl)ethyl)-1H-indole] | > 3
18 | Clc1ccc2c(ccn2CCN2CCCCC2)c1 [Example 48, 5-chloro-1-(2-(piperidin-1-yl)ethyl)-1H-indole] | 1.5 to 3
19 | Clc1ccc2c(ccn2CCN2CCOCC2)c1 [Example 49, 4-(2-(5-chloro-1H-indol-1-yl)ethyl)morpholine] | 1.5 to 3
20 | FC(F)(F)Oc1ccc2c(ccn2CCN2CCCC2)c1 [Example 50, 1-(2-(pyrrolidin-1-yl)ethyl)-5-(trifluoromethoxy)-1H-indole] | 1.5 to 3

Test system: 5HT2A sensor
Test: 5HT2A sensor assay, antagonist mode (sLight1.3s HEK293T stable line)
Type: cell-based
Conditions: 100 nM compound; relative to 5-HT at 100 nM
Procedure: In some embodiments, the 5HT2A sensor assay is in an antagonist mode.
as §1, §2, §3, §4, §5, §6

Row | SMILES | 5HT2A Antagonist mean @ 100 nM (%)
21 | Clc1ccc2c(ccn2CCN2CCCC2)c1 [Example 47, 5-chloro-1-(2-(pyrrolidin-1-yl)ethyl)-1H-indole] | A (inhibits 5HT response by >100%)
22 | Clc1ccc2c(ccn2CCN2CCCCC2)c1 [Example 48, 5-chloro-1-(2-(piperidin-1-yl)ethyl)-1H-indole] | A (inhibits 5HT response by >100%)
23 | Clc1ccc2c(ccn2CCN2CCOCC2)c1 [Example 49, 4-(2-(5-chloro-1H-indol-1-yl)ethyl)morpholine] | A (inhibits 5HT response by >100%)
24 | FC(F)(F)Oc1ccc2c(ccn2CCN2CCCC2)c1 [Example 50, 1-(2-(pyrrolidin-1-yl)ethyl)-5-(trifluoromethoxy)-1H-indole] | A (inhibits 5HT response by >100%)

Same assay, conditions: 10 μM compound; relative to 5-HT at 100 nM

Row | SMILES | 5HT2A Antagonist mean @ 10 μM (%)
25 | Clc1ccc2c(ccn2CCN2CCCC2)c1 [Example 47, 5-chloro-1-(2-(pyrrolidin-1-yl)ethyl)-1H-indole] | A (inhibits 5HT response by >100%)
26 | Clc1ccc2c(ccn2CCN2CCCCC2)c1 [Example 48, 5-chloro-1-(2-(piperidin-1-yl)ethyl)-1H-indole] | A (inhibits 5HT response by >100%)
27 | Clc1ccc2c(ccn2CCN2CCOCC2)c1 [Example 49, 4-(2-(5-chloro-1H-indol-1-yl)ethyl)morpholine] | B (inhibits 5HT response by 75% to 100%)
28 | FC(F)(F)Oc1ccc2c(ccn2CCN2CCCC2)c1 [Example 50, 1-(2-(pyrrolidin-1-yl)ethyl)-5-(trifluoromethoxy)-1H-indole] | B (inhibits 5HT response by 75% to 100%)

Same assay, conditions: 100 μM compound; relative to 5-HT at 100 nM

Row | SMILES | 5HT2A Antagonist mean @ 100 μM (%)
29 | Clc1ccc2c(ccn2CCN2CCCC2)c1 [Example 47, 5-chloro-1-(2-(pyrrolidin-1-yl)ethyl)-1H-indole] | A (inhibits 5HT response by >100%)
30 | Clc1ccc2c(ccn2CCN2CCCCC2)c1 [Example 48, 5-chloro-1-(2-(piperidin-1-yl)ethyl)-1H-indole] | A (inhibits 5HT response by >100%)
31 | Clc1ccc2c(ccn2CCN2CCOCC2)c1 [Example 49, 4-(2-(5-chloro-1H-indol-1-yl)ethyl)morpholine] | C (inhibits 5HT response by <75%)
32 | FC(F)(F)Oc1ccc2c(ccn2CCN2CCCC2)c1 [Example 50, 1-(2-(pyrrolidin-1-yl)ethyl)-5-(trifluoromethoxy)-1H-indole] | A (inhibits 5HT response by >100%)

Biological target: T1, 5HT2A (Homo sapiens, UniProt P28223)
T1 construct: expressed in transfected cells
T1 sequence (P28223 whole entry): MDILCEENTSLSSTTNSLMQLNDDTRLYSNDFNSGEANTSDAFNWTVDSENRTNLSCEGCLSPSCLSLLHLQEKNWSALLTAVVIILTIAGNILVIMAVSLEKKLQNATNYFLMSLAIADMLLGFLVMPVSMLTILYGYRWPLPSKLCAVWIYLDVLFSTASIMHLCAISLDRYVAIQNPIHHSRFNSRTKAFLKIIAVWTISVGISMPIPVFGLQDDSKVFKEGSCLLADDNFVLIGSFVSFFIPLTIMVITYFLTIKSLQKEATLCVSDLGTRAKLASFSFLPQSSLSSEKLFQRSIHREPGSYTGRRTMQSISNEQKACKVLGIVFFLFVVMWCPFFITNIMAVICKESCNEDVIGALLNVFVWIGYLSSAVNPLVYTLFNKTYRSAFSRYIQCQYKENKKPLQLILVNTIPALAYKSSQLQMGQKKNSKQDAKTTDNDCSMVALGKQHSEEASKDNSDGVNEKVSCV
Test: Calcium flux assay (Calcium secondary messenger pathway)
Type: cell-based
Conditions: agonist mode
From the text: Calcium Flux Assay. Calcium Secondary Messenger Pathway. The Calcium No Wash^PLUS assay monitors the activation of a GPCR (e.g., 5HT2A) via Gq secondary messenger signaling in a live cell, non-imaging assay format. Calcium mobilization in PathHunter® cell lines or other cell lines stably expressing Gq-coupled GPCRs (e.g., 5HT2A) is monitored using a calcium-sensitive dye that is loaded into cells. GPCR (e.g., 5HT2A) activation by a compound results in the release of calcium from intracellular stores and an increase in dye fluorescence that is measured in real-time. In some embodiments, the ability of a compound of the present invention to modulate 5-HT2A function is determined using a calcium flux assay. In some embodiments, a compound of the present invention activates a calcium flux assay.
Calcium Secondary Messenger Pathway. Cell lines were expanded from freezer stocks according to standard procedures. Cells were seeded in a total volume of 20 μL into black-walled, clear-bottom, Poly-D-lysine coated 384-well microplates and incubated at 37° C. for the appropriate time prior to testing. Assays were performed in 1× Dye Loading Buffer consisting of 1× Dye, 1× Additive A and 2.5 mM Probenecid in HBSS/20 mM Hepes. Probenicid was prepared fresh. Cells were loaded with dye prior to testing. Media was aspirated from cells and replaced with 20 μL Dye Loading Buffer. Cells were incubated for 30-60 minutes at 37° C.
For agonist determination, cells were incubated with sample to induce response. After dye loading, cells were removed from the incubator and 10 μL HBSS/20 mM Hepes was added. 3× vehicle was included in the buffer when performing agonist dose curves to define the EC80 for subsequent antagonist assays. Cells were incubated for 30 minutes at room temperature in the dark to equilibrate plate temperature. Intermediate dilution of sample stocks was performed to generate 4× sample in assay buffer. Compound agonist activity was measured on a FLIPR Tetra (MDS). Calcium mobilization was monitored for 2 minutes and 10 μL 4× sample in HBSS/20 mM Hepes was added to the cells 5 seconds into the assay.
Compound activity was analyzed using CBIS data analysis suite (ChemInnovation, CA). For agonist mode assays, percentage activity is calculated using the following formula: % Activity=100%×(mean RFU of test sample−mean RFU of vehicle control)/(mean MAX RFU control ligand−mean RFU of vehicle control).

Row | SMILES | EC50
33 | Clc1ccc2c(ccn2CCN2CCCC2)c1 [Example 47, 5-chloro-1-(2-(pyrrolidin-1-yl)ethyl)-1H-indole] | < 10 µM
34 | Clc1ccc2c(ccn2CCN2CCCCC2)c1 [Example 48, 5-chloro-1-(2-(piperidin-1-yl)ethyl)-1H-indole] | > 10 µM
35 | Clc1ccc2c(ccn2CCN2CCOCC2)c1 [Example 49, 4-(2-(5-chloro-1H-indol-1-yl)ethyl)morpholine] | > 10 µM
36 | FC(F)(F)Oc1ccc2c(ccn2CCN2CCCC2)c1 [Example 50, 1-(2-(pyrrolidin-1-yl)ethyl)-5-(trifluoromethoxy)-1H-indole] | > 10 µM
